In ChEMBL document CHEMBL1153670 (Bioorg Med Chem Lett, 1995):

Legend:
HCT-116 [1] = experiment: cells; settings: Homo sapiens
M109 [2] = experiment: In vivo cytotoxicity of intraperitoneally administered compound at dose 50 mgkg/inj was determined against ip implanted murine M-109 lung carcinoma; assay type: organism-based; parameters: dose mgkg, route intraperitoneal; settings: mouse
HCT-116 [3] = experiment: Potency relative to paclitaxel in a tubulin polymerization assay in HCT116 cell line; assay type: functional, Homo sapiens
HCT-116 [4] = experiment: In vitro cytotoxicity was determined by inhibition against HCT116 cell line proliferation after 72 hours of incubation; assay type: cell-based; settings: Homo sapiens, HCT-116, 72 h
M109 [5] = experiment: In vivo cytotoxicity of intraperitoneally administered compound at dose 16 mg/kg/inj was determined against ip implanted murine M-109 lung carcinoma; assay type: organism-based; parameters: route intraperitoneal; settings: mouse
M109 [6] = experiment: In vivo cytotoxicity of intraperitoneally administered compound at dose 32 mg/kg/inj was determined against ip implanted murine M-109 lung carcinoma; assay type: organism-based; parameters: route intraperitoneal; settings: mouse
M109 [7] = experiment: In vivo cytotoxicity of intraperitoneally administered compound at dose 25 mgkg/inj was determined against ip implanted murine M-109 lung carcinoma; assay type: organism-based; parameters: dose mgkg, route intraperitoneal; settings: mouse
M109 [8] = experiment: In vivo cytotoxicity of intraperitoneally administered compound at dose 1.6 mg/kg/inj was determined against ip implanted murine M-109 lung carcinoma; assay type: organism-based; parameters: route intraperitoneal; settings: mouse
M109 [9] = experiment: In vivo cytotoxicity of intraperitoneally administered compound at dose 3 mg/kg/inj was determined against ip implanted murine M-109 lung carcinoma; assay type: organism-based; parameters: route intraperitoneal; settings: mouse

Compound	IC50 (HCT-116 [1]) [nM]	T/C (M109 [2]) [%]	Tubulin polymerization ratio (HCT-116 [3])	IC50 (HCT-116 [4]) [nM]	T/C (M109 [5]) [mg kg-1 injection-1]	T/C (M109 [6]) [%]	T/C (M109 [7]) [mg kg-1 injection-1]	T/C (M109 [8]) [%]	T/C (M109 [9]) [mg kg-1 injection-1]
COC(=O)O[C@@]12CO[C@@H]1C[C@H](O)[C@@]1(C)C(=O)[C@H](OC(C)=O)C3=C(C)[C@@H](OC(=O)[C@H](O)C(NC(=O)c4ccccc4)c4ccccc4)C[C@@](O)([C@@H](OC(=O)c4ccccc4)C12)C3(C)C (some centres undefined)	0.5	161	0.41	2	–	–	–	–	–
CC(=O)O[C@H]1C(=O)[C@@]2(C)C([C@H](OC(=O)c3ccccc3)[C@]3(O)C[C@H](OC(=O)[C@H](O)C(NC(=O)c4ccccc4)c4ccco4)C(C)=C1C3(C)C)[C@]1(OC(=O)C3CCC3)CO[C@@H]1C[C@@H]2O (some centres undefined)	0.4	–	0.29	1.6	188	–	–	–	–
COC(=O)O[C@@]12CO[C@@H]1C[C@H](O)[C@@]1(C)C(=O)[C@H](OC(C)=O)C3=C(C)[C@@H](OC(=O)[C@H](O)C(NC(=O)OC(C)(C)C)c4ccco4)C[C@@](O)([C@@H](OC(=O)c4ccccc4)C12)C3(C)C (some centres undefined)	0.4	–	0.66	1.6	–	183	–	–	–
CCCC(=O)O[C@@]12CO[C@@H]1C[C@H](O)[C@@]1(C)C(=O)[C@H](OC(C)=O)C3=C(C)[C@@H](OC(=O)[C@H](O)C(NC(=O)c4ccccc4)c4ccccc4)C[C@@](O)([C@@H](OC(=O)c4ccccc4)C12)C3(C)C (some centres undefined)	0.25	–	0.61	1.1	–	–	164	–	–
CC(=O)O[C@H]1C(=O)[C@@]2(C)C([C@H](OC(=O)c3ccccc3)[C@]3(O)C[C@H](OC(=O)[C@H](O)C(NC(=O)OC(C)(C)C)c4ccccc4)C(C)=C1C3(C)C)[C@]1(OC(=O)C3CC3)CO[C@@H]1C[C@@H]2O (some centres undefined)	0.2	–	0.22	0.8	–	–	–	115	–
CC(=O)O[C@H]1C(=O)[C@@]2(C)C([C@H](OC(=O)c3ccccc3)[C@]3(O)C[C@H](OC(=O)[C@H](O)C(NC(=O)c4ccccc4)c4ccco4)C(C)=C1C3(C)C)[C@]1(OC(=O)C3CC3)CO[C@@H]1C[C@@H]2O (some centres undefined)	0.22	–	0.33	0.9	–	–	–	–	132
